These compounds were tested against T1, Kinesin-like protein KIF11 (Homo sapiens, UniProt P52732) (assay: Binding affinity to N-terminal His6-tagged human Eg5 motor domain (1 to 368 residues) expressed in Escherichia coli BL21 (DE3) by isothermal titration calorimetry method).
T1 sequence (P52732 whole entry): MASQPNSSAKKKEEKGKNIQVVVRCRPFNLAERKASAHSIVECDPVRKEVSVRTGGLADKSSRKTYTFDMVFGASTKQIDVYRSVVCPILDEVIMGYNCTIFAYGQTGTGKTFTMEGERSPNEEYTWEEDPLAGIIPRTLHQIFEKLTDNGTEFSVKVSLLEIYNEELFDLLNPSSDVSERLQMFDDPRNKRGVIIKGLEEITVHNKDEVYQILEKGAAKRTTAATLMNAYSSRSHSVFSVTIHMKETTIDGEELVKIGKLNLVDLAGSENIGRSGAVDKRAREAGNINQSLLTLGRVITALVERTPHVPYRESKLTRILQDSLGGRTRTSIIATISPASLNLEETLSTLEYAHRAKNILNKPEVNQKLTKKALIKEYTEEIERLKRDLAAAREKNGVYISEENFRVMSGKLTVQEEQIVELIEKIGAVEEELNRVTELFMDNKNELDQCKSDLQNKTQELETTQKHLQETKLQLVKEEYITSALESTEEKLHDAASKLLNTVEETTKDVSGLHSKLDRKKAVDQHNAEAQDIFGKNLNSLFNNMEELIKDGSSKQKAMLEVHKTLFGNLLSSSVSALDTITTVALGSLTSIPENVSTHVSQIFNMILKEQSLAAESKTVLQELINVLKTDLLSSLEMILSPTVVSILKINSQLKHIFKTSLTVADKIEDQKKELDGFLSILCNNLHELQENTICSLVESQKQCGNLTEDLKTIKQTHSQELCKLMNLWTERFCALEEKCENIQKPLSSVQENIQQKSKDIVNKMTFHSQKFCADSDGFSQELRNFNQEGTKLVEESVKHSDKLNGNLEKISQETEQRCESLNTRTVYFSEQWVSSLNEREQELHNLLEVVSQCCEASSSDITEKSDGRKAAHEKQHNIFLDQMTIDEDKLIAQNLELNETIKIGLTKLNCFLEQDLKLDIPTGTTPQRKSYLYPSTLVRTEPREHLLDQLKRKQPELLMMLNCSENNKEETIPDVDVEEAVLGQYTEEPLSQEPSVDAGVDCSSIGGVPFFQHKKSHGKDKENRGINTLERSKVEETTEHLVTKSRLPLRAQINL

| Compound | Kd [µM] |
| --- | --- |
| CC(=O)NC1=NN(C(C)=O)[C@](C)(c2ccccc2)S1 | 0.22 |
| CC(=O)NC1=NN(C(C)=O)C(C)(c2ccccc2)S1 (centres undefined) | 0.665 |

Each compound was assayed against T1, Kinesin-like protein KIF11 (assay: Inhibition of microtubule-stimulated human Eg5 ATPase activity).

| Compound | IC50 [µM] |
| --- | --- |
| CCNCCS(=O)(=O)NC[C@@]1(c2ccccc2)SC(NC(=O)C(C)(C)C)=NN1C(=O)C(C)(C)C [LITRONESIB] | 0.026 |

These compounds were tested against T1, Kinesin-like protein KIF11 (assay: Inhibition of basal ATPase activity of N-terminal His6-tagged human Eg5 motor domain (1 to 368 residues) expressed in Escherichia coli BL21 (DE3) by pyruvate kinase-lactate dehydrogenase coupled assay).

| Compound | IC50 [µM] |
| --- | --- |
| CC(=O)NC1=NN(C(C)=O)C(c2ccccc2)S1 (centres undefined) | 20 |
| CC(=O)NC1=NN(C(C)=O)C(C)(c2cccs2)S1 (centres undefined) | 1.7 |
| CC(=O)NC1=NN(C(C)=O)C(C)(c2cc(F)ccc2F)S1 (centres undefined) | 0.84 |
| CC(=O)NC1=NN(C(C)=O)C(C)(c2cccc3ccccc23)S1 (centres undefined) | 1.9 |
| CC(=O)NC1=NN(C(C)=O)C(C)(c2ccncc2)S1 (centres undefined) | 59.9 |
| CC(=O)NC1=NN(C(C)=O)C(C)(c2ccc(OC(C)=O)cc2)S1 (centres undefined) | 5.1 |
| CC(=O)NC1=NN(C(C)=O)C(C)(c2cnccn2)S1 (centres undefined) | 46.9 |
| CC(=O)NC1=NN(C(C)=O)C(C)(c2ccsc2)S1 (centres undefined) | 2.2 |
| CC(=O)NC1=NN(C(C)=O)C(C)(C2CCCCC2)S1 (centres undefined) | 7.5 |
| CC(=O)NC1=NN(C(C)=O)C(c2cc(F)ccc2F)S1 (centres undefined) | 41.1 |
| CC(=O)NC1=NN(C(C)=O)C(C)(c2ccc3ccccc3c2)S1 (centres undefined) | 15.6 |
| CC(=O)NC1=NN(C(C)=O)C(c2cccc3ccccc23)S1 (centres undefined) | 53.9 |
| CCC1(c2ccccc2)SC(NC(C)=O)=NN1C(C)=O (centres undefined) | 1.46 |
| CC(=O)NC1=NN(C(C)=O)C(C)(c2ccc(Cl)s2)S1 (centres undefined) | 0.95 |
| CC(=O)NC1=NN(C(C)=O)[C@](C)(c2ccccc2)S1 | 0.58 |
| CC(=O)NC1=NN(C(C)=O)C(C)(c2cccnc2)S1 (centres undefined) | 8.5 |
| CC(=O)NC1=NN(C(C)=O)C(C)(c2ccco2)S1 (centres undefined) | 4.3 |
| CC(=O)NC1=NN(C(C)=O)C(C)(c2ccccc2)S1 (centres undefined) | 0.74 |
| CC(=O)NC1=NN(C(C)=O)C(C)(c2ccccn2)S1 (centres undefined) | 37.2 |

Each compound was assayed against T1, Kinesin-like protein KIF11 (assay: Inhibition of N-terminal His6-tagged microtubule-stimulated ATPase activity of human Eg5 motor domain (1 to 368 residues) expressed in Escherichia coli BL21 (DE3) by pyruvate kinase-lactate dehydrogenase coupled assay).

| Compound | IC50 [µM] |
| --- | --- |
| CC(=O)NC1=NN(C(C)=O)[C@](C)(c2ccccc2)S1 | 0.493 |
| CC(=O)NC1=NN(C(C)=O)C(C)(c2ccccc2)S1 (centres undefined) | 0.74 |

— ChEMBL document CHEMBL4270569, “Crystal structure of the Eg5 - K858 complex and implications for structure-based design of thiadiazole-containing inhibitors” (Eur J Med Chem, 2018)
